Holding throughout (type): cell-based, rat
Experiment [1] concerns cultured cortical neurons. In words: Neurite outgrowth (total neurite length per cell) in cultured cortical neurons. The arrangement: unit of the concentration uncertain. The settings on record: 72 hours. The method, then: Dissociated cortical neuron cultures were prepared as previously described (Pong et al., cited above, 2001). Briefly, embryonic day 15 rat fetuses were collected and dissected in ice-cold PBS. Dissected cortices were pooled together and transferred to an enzymatic dissociation medium containing papain. After 30 minutes, the tissue was mechanically triturated with a fire-polished glass Pasteur pipette. Single-cell suspensions in complete media were seeded on poly-L-ornithine and laminin coated 96-well plates. After 24 hours, cultures were treated with various concentrations of the compound of formula I for 72 hours. The cultures were then fixed and stained with an anti-tubulin primary antibody (TUJ-1) and a fluorescent-tagged secondary antibody. Neurite outgrowth was determined by using the Enhanced Neurite Outgrowth (ENO) algorithm with the Cellomics ArrayScan and expressed as total neurite length per cell.

The subject of experiment [2] is cultured dorsal root ganglia. Description: Neurite outgrowth (total neurite length per cell) in cultured dorsal root ganglia. The arrangement: unit of the concentration uncertain. The settings on record: 72 hours. The method, then: Dissociated dorsal root ganglia cultures were prepared as previously described [A. Wood et al., “Stimulation of neurite outgrowth by immunophilin ligands: quantitative analysis by Cellomics Array scan” Society for Neuroscience (2004), abstract 104.3] Briefly, postnatal day 3–5 rat pups were euthanized. The spinal columns were removed and individual dorsal root ganglia (DRG) were dissected out. Dissected DRG were pooled together and transferred to an enzymatic dissociation medium containing papain. After 60 minutes, the tissue was mechanically triturated with a fire-polished glass Pasteur pipette. Single-cell suspensions in complete media were seeded on poly-L-ornithine and laminin coated 96-well plates. After 24 hours, cultures were treated with various concentrations of the compound of formula I for 72 hours. The cultures were then fixed and stained with an anti-tubulin primary antibody (TUJ-1) and a fluorescent-tagged secondary antibody. Neurite outgrowth was determined by using the Enhanced Neurite Outgrowth (ENO) algorithm with the Cellomics ArrayScan and expressed as total neurite length per cell.

Experiment [3] concerns cultured cortical neurons. In words: Neurofilament content in cultured cortical neurons. The method, then:
Dissociated cortical neuron cultures were prepared as previously described [Pong et al., Exp Neurol. 2001 September; 171(1):84–97 (2001)]. Briefly, embryonic day 15 rat fetuses were collected and dissected in ice-cold PBS. Dissected cortices were pooled together and transferred to an enzymatic dissociation medium containing papain. After 30 min, the tissue was mechanically triturated with a fire-polished glass Pasteur pipette. Single-cell suspensions in complete media were seeded on poly-L-ornithine and laminin coated 96-well plates. 24 hours later, cultures were treated with various concentrations of compound of formula (I) for 72 hours. The cultures were then fixed and stained with a neurofilament primary antibody and a peroxidase-tagged secondary antibody. A peroxidase substrate (K-Blue Max) was added and the colorimetric change was measure on a colorimetric plate reader.

Experiment [4] concerns cultured dopaminergic neurons. In words: High-affinity 3H-dopamine uptake after MPP+ induced toxicity. The protocol: Mesencephalic dopaminergic neuron cultures were prepared as previously described in Pong et al., J Neurochem. 69: 986–994 (1997). Embryonic day 15 (E15) rat fetuses were collected and dissected in ice-cold phosphate-buffered saline (PBS). The ventral piece of tissue compromising the mesencephalic dopaminergic region was dissected out. Dissected pieces of tissue were pooled together and transferred to an enzymatic dissociation medium containing 20 IU/ml papain in Earle's balanced salt solution (Worthington Biochemical, Freehold, N.J., U.S.A.) and incubated for 60 minutes at 37° C. After enzymatic dissociation, the papain solution was aspirated and the tissue mechanically triturated with a fire-polished glass Pasteur pipette in complete medium [equal volumes of minimum essential medium (MEM) and F-12 nutrient mixture (Gibco BRL) supplemented with 0.1 mg/ml apotransferrin and 2.5 μg/ml insulin] containing 2,000 IU/ml DNase and 10 mg/ml ovomucoid protease inhibitor.
For dopamine uptake experiments, single-cell suspensions in complete media were seeded on poly-L-ornithine and laminin coated 24-well plates. The cultures were maintained for seven days prior to experimentation. Cultures were pretreated with various concentrations of the compound of formula (I) (washed with PBS and diluted with media to concentrations of 1 nM to 1000 nM) for 24 hours, then exposed to 10 μM the neurotoxin 1-methyl-4-phenylpyridinium (MPP^+) for 1 hour to assess the neuroprotective effect of the compound of formula (I) in cell culture. Following the 1 hour incubation, media was exchanged three times and fresh compound was added for an additional 48 hours.
More particularly, after 48 hours growth of mesencephalic dopaminergic neuron cultures following MPP^+ exposure, high-affinity ^3H-dopamine uptake was performed using a modified method described by Prochiantz et al., Nature 293: 570–572 (1981). Cultures were washed with pre-warmed phosphate-buffered saline (PBS) containing 5.6 mM glucose and 1 mM ascorbic acid. Cultures were then incubated for 15 minutes at 37° C. with 50 nM ^3H-dopamine (31 Ci/mmol, Du Pont-NEN, Wilmington, Del., U.S.A.). The cultures were washed twice with buffer and lysed with 0.5 N NaOH. The lysate was transferred to a scintillation vial containing Ultima Gold scintillation cocktail and radioactivity was determined with a liquid scintillation counter. Alternatively, culture lysates can be washed twice with buffer, incubated for 2 hours at room temperature with Optiphase Supermix scintillation cocktail (Wallac Scintillation Products, Gaithersburg, Md., USA), and radioactivity measured with a liquid scintillation counter.

What is called EC50 is the midpoint of the concentration-response curve. Take `CC/C1=C\CC(/C(C)=C/C(C)C(C)O)OC(=O)C2CCCN2C(=O)C(=O)C2(O)OC(CCC2C)CC(O)C(C)C(O)CC(O)CC(O)/C(C)=C/C(C)CC(C)C1O` (stereo not shown) [Compound (I), prolylmeridamycin]: the “Total Neurite Length (% Above Control)” value in experiment [1] (10 nM) is on record as 30% Above Control; in experiment [1] (100 nM) it was 51% Above Control; in experiment [1] (1 (unit uncertain)) it was 120% Above Control; in experiment [1] (10 (unit uncertain)), 178% Above Control; in experiment [2] (10 nM), 2% Above Control; in experiment [2] (100 nM) it was 7% Above Control. In addition, the results for the “Total Neurite Length (% Above Control)” value in experiment [2] (1 (unit uncertain)) and in experiment [2] (10 (unit uncertain)) were 21% Above Control and 44% Above Control, respectively. Besides, the “NEUROFILAMENT CONTENT (FOLD-INCREASE ABOVE UNTREATED CONTROL)” value in experiment [3] (10 nM, 72 hours) is listed as 1.54 FOLD-INCREASE ABOVE UNTREATED CONTROL; in experiment [3] (100 nM, 72 hours), 2.22 FOLD-INCREASE ABOVE UNTREATED CONTROL; in experiment [3] (1 μM, 72 hours) it was 2.34 FOLD-INCREASE ABOVE UNTREATED CONTROL; in experiment [3] (10 μM, 72 hours), 2.26 FOLD-INCREASE ABOVE UNTREATED CONTROL. Also, the EC50 in experiment [3] (Rattus norvegicus, Cortical neurone, 72 hours, neurofilament content, read-out: EC50, increased neuronal survival in cultured cortical neurons) turned out to be 21 nM; in experiment [4] (Rattus norvegicus, Neuron, relative to maximum protection (84% uptake) afforded by 10 ng/mL GDNF, read-out: EC50, neuroprotection against MPP+-induced neurotoxicity), 110 nM. The “potency compared with meridamycin” value in experiment [3] (similar study with meridamycin) and in experiment [4] (similar study with meridamycin) was “more potent” in each case. Besides, the “3H-DOPAMINE UPTAKE (% UNTREATED CONTROL)” value was found to be 45% UNTREATED CONTROL in experiment [4] (1 nM compound, 24 h pretreatment, 10 μM MPP+ 1 hour, 48 h after); 52% UNTREATED CONTROL in experiment [4] (10 nM compound, 24 h pretreatment, 10 μM MPP+ 1 hour, 48 h after); 61% UNTREATED CONTROL in experiment [4] (100 nM compound, 24 h pretreatment, 10 μM MPP+ 1 hour, 48 h after); 72% UNTREATED CONTROL in experiment [4] (1000 nM compound, 24 h pretreatment, 10 μM MPP+ 1 hour, 48 h after).
With `C[n+]1ccc(-c2ccccc2)cc1` [MPP^+, 1-methyl-4-phenylpyridinium, reference compound], the “3H-DOPAMINE UPTAKE (% UNTREATED CONTROL)” value in experiment [4] (10 μM MPP+ for 1 hour, no test compound) turned out to be 40% UNTREATED CONTROL.

B1: glial cell line-derived neurotrophic factor (protein, UniProt P39905 78-211, looked up)
Glial cell line-derived …: SPDKQMAVLPRRERNRQAAAANPENSRGKGRRGQRGKNRGCVLTAIHLNVTDLGLGYETKEELIFRYCSGSCDAAETTYDKILKNLSRNRRLVSDKVGQACCRPIAFDDDLSFLDDNLVYHILRKHSAKRCGCI
notes: glial cell line-derived neurotrophic factor, gives maximum protection in the dopamine uptake assay
B1: the “maximum protection (% uptake)” value in experiment [4] (10 ng/mL GDNF, MPP+-induced neurotoxicity) worked out at 84 % uptake.

These data come from patent US7247650B2, “Macrolides and methods for producing same” (Wyeth, priority 2004, dated 2007).
